We go through 1 compound from US20230277630A1, “METHODS AND COMPOSITIONS FOR TREATING AMYOTROPHIC LATERAL SCLEROSIS” (Amylyx Pharmaceuticals, Inc., priority 2022, published 2023).

One series concerns P-gp and BCRP. Nature of the series: in vitro. Conditions: human. As to the method:
The P-gp and BCRP substrate assessment was conducted in C2BBe1 cell monolayers. […] LY was co-dosed with each dosing solution at a nominal concentration of 200 μM.
The cell culture medium was aspirated, and the cell monolayers were rinsed once with HBSSg_7.4. […] For receiver samples, aliquots (300 μL) were taken at pre-selected time points. […] For donor samples, aliquots (50 μL) were taken at pre-selected time points without replacement.

Series [1] concerns the target T1, human liver microsomes (HLM) (Homo sapiens, UniProt P10632).
T1 construct: from tissue; host or cells: pooled human liver microsomes
T1 sequence (P10632 1-490): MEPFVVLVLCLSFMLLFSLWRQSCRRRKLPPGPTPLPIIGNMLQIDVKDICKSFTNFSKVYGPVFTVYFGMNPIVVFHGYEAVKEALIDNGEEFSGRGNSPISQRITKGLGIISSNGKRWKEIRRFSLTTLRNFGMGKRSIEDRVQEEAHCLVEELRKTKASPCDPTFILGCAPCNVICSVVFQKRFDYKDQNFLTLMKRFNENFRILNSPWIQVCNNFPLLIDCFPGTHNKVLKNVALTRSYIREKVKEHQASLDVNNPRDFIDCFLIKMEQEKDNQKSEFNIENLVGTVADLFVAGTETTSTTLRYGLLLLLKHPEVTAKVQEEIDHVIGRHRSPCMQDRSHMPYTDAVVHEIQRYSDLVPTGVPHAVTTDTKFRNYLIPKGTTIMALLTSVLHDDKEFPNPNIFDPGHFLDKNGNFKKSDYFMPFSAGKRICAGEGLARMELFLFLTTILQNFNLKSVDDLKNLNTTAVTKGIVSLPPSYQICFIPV
Nature of the series: CYP reaction phenotyping using HLM and chemical inhibitors (% remaining). In kind it is in vitro ADME. Conditions: human, microsomes, 5 μM, pH 7.4. An excerpt: % Remaining of TA=100×At/A0
Where, At and A0 are the peak area ratio of TA to IS at time t and at time zero, respectively.

[2] abbreviates: Caco-2, pH 7.4, AP-to-BL Papp of TUDCA.
The mark [3] stands for this setting: Caco-2, pH 7.4, AP-to-BL Recovery of TUDCA.
The mark [4] stands for this setting: Caco-2, pH 7.4, BL-to-AP Papp of TUDCA.
Where [5] appears, read: Caco-2, pH 7.4, BL-to-AP Recovery of TUDCA.

Structures are written as SMILES.

Regarding `C[C@H](CCC(=O)NCCS(=O)(=O)O)[C@H]1CC[C@H]2[C@@H]3[C@@H](O)C[C@@H]4C[C@H](O)CC[C@]4(C)[C@H]3CC[C@]12C` [TUDCA, tauroursodeoxycholic acid], in the series with P-gp and BCRP (setting [2]), the apparent permeability from apical to basolateral (Papp A→B) – broadly, the apparent permeability from the apical to the basolateral side of a cell layer – at 1.62 µM amounted to 9.59 ×10⁻⁶ cm/s; the Papp A→B at 81 µM turned out to be 5.84 ×10⁻⁶ cm/s; the Papp A→B at […] came to 7.47 ×10⁻⁶ cm/s. In the series on P-gp and BCRP (setting [3]), this compound gave a recovery at 1.62 μM of 78.5%, a recovery at 16.2 μM of 71.6% and a recovery at 81 μM of 101%. For the same compound, in the series with P-gp and BCRP (setting [4]), the apparent permeability from basolateral to apical (Papp B→A) (in general, how fast a substance crosses the layer from the basolateral side) at 1.62 µM worked out at 1.75 ×10⁻⁶ cm/s; the Papp B→A at 16.2 µM turned out to be 0.553 ×10⁻⁶ cm/s; the Papp B→A at 81 µM worked out at 2.66 ×10⁻⁶ cm/s; the Papp B→A at […] came to 1.94 ×10⁻⁶ cm/s. In the series on P-gp and BCRP (setting [5]), this compound gave a recovery at 1.62 μM of 79.5%, a recovery at 16.2 μM of 76.1% and a recovery at 81 μM of 101%. Besides, in series [1] (0 h), the “% Remaining of TA (n = 3) Average” value was 100%. Further, the “% Remaining of TA (n = 3) Average” value in series [1] (5 min) is 101%. Moreover, the “% Remaining of TA (n = 3) Average” value in series [1] (10 min) is given as 103%. Moreover, the “% Remaining of TA (n = 3) Average” value in series [1] (20 min) is 95.5%. Besides, the “% Remaining of TA (n = 3) Average” value in series [1] (0.5 h) is 105%. Also, the “% Remaining of TA (n = 3) Average” value in series [1] (1 h) was determined as 97.7%.
